# Experimental data taken from publication PMC6631349 (Xenobiotica; the fate of foreign compounds in biological …, 2014).
# Like-named read-outs stand apart in the source and are kept apart here.
# Legend:
# [1] = target: T1, UGT1A6 (Homo sapiens, UniProt P19224); details: for residual activity 1A6: recombinant human UGT, mean of triplicate; for inhibition percentage of UGT1A6 activity: 50 μM
# T1 sequence (P19224 27-532): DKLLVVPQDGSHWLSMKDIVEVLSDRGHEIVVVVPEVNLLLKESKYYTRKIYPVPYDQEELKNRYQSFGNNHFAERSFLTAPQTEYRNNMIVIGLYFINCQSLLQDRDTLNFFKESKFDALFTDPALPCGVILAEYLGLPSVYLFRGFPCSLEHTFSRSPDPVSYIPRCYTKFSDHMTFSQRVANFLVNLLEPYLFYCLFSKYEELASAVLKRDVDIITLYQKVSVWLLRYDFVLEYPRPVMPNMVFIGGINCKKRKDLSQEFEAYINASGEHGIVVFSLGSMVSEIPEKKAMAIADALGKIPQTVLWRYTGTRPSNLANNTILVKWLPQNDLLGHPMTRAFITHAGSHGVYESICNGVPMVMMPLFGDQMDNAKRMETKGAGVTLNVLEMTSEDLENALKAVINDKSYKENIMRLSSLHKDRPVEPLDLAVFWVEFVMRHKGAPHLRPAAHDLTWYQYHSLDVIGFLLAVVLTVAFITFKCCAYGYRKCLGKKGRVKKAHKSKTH
# [2] = target: T2, UGT1A9 (Homo sapiens, UniProt O60656); assay: UGT1A9 supersomes-catalyzed 4-MU glucuronidation inhibition; details: for residual activity 1A9: recombinant human UGT, mean of triplicate
# T2 sequence (O60656 26-530): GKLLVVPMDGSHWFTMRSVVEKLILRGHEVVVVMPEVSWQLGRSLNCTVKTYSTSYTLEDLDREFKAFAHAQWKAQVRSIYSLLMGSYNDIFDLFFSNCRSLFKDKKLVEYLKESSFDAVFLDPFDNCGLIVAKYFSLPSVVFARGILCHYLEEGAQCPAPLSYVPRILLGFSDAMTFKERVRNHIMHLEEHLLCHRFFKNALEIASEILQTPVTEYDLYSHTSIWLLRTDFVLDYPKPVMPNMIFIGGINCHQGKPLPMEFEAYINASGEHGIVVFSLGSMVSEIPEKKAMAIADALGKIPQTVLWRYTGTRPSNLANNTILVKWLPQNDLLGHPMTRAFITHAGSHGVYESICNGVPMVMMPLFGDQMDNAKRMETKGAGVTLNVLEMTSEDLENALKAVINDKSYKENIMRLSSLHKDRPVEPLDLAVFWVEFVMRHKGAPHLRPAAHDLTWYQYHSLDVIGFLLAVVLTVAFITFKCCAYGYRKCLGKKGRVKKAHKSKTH
# [3] = target: T3, UGT1A7 (Homo sapiens, UniProt Q9HAW7); assay: UGT1A7 supersomes-catalyzed 4-MU glucuronidation inhibition; details: recombinant human UGT, mean of triplicate
# T3 sequence (Q9HAW7 26-530): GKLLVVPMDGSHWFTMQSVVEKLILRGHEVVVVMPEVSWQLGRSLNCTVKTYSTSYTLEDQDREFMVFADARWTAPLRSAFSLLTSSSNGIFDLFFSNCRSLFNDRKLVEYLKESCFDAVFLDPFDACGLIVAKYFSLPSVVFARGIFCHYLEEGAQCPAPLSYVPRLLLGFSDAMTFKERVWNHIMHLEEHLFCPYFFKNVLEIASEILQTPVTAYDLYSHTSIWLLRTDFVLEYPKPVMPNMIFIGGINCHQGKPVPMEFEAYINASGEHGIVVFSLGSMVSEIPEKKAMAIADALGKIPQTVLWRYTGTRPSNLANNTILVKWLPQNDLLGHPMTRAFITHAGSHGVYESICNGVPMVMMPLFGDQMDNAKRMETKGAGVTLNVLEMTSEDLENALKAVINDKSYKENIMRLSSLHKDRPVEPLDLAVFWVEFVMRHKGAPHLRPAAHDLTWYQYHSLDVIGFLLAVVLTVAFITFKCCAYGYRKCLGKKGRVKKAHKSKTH
SMILES,residual activity 1A6 ([1]; 50 μM LPC components) [%],residual activity 1A9 ([2]; 50 μM LPC components) [%],residual activity 1A7 ([3]; 50 μM LPC components) [%],residual activity 1A6 ([1]; 50 μM PC components) [%],residual activity 1A9 ([2]; 50 μM PC components) [%],residual activity 1A7 ([3]; 50 μM PC components) [%],inhibition percentage of UGT1A6 activity [1] [%],inhibition percentage of UGT1A9 activity ([2]; 50 μM) [%]
CCCCCCCCCCCCCC(=O)OC[C@@H](O)COP(=O)([O-])OCC[N+](C)(C)C [LPC 14:0],33.3,97.5,153.6,,,,,
"CCCCCCCCCCCCCCCCCCCC(=O)OC[C@H](COP(=O)([O-])OCC[N+](C)(C)C)OC(=O)CCCCCCCCCCCCCCCCCCC [PC 20:0, 20:0]",,,,88.2,65.6,125.5,,
"CCCCCCCCCCCCCCCC(=O)OC[C@H](COP(=O)([O-])OCC[N+](C)(C)C)OC(=O)CCCCCCCCCCCCCCC [PC 16:0, 16:0]",,,,53.7,67.5,155.2,,
"CCCCCCCCCCCCCCCCCCCCC(=O)OC[C@H](COP(=O)([O-])OCC[N+](C)(C)C)OC(=O)CCCCCCCCCCCCCCCCCCCC [PC 21:0, 21:0]",,,,85.4,38.1,122.0,,
CCCCCC(=O)OC[C@@H](O)COP(=O)([O-])OCC[N+](C)(C)C [LPC 6:0],72.7,95.9,130.6,,,,,
"CCCCCCCCCC(=O)OC[C@H](COP(=O)([O-])OCC[N+](C)(C)C)OC(=O)CCCCCCCCC [PC 10:0, 10:0]",,,,23.2,158,163.2,76.8,
"CCCCCCCCCCCCCCCCC(=O)OC[C@H](COP(=O)([O-])OCC[N+](C)(C)C)OC(=O)CCCCCCCCCCCCCCCC [PC 17:0, 17:0]",,,,49.1,65.7,138.9,,
"CCCCCCCCCCCCCCCCCCC(=O)OC[C@H](COP(=O)([O-])OCC[N+](C)(C)C)OC(=O)CCCCCCCCCCCCCCCCCC [PC 19:0, 19:0]",,,,49.1,42.3,135.5,,
CCCCCCC(=O)OCC(O)COP(=O)([O-])OCC[N+](C)(C)C (stereo not shown) [LPC 7:0],71.0,92.9,138.3,,,,,
"CCCCCCCCCCCCCCCCCCCCCCC(=O)OC[C@H](COP(=O)([O-])OCC[N+](C)(C)C)OC(=O)CCCCCCCCCCCCCCCCCCCCCC [PC 23:0, 23:0]",,,,98.9,77.3,118.8,,
"CCCCCCCCCCCCCCC(=O)OC[C@H](COP(=O)([O-])OCC[N+](C)(C)C)OC(=O)CCCCCCCCCCCCCC [PC 15:0, 15:0]",,,,55.0,64.7,172.7,,
"CCCCCCCCCCCCCC(=O)OC[C@H](COP(=O)([O-])OCC[N+](C)(C)C)OC(=O)CCCCCCCCCCCCC [PC 14:0, 14:0]",,,,54.3,86.3,162.3,,
CCCCCCCCCCC(=O)OC[C@@H](O)COP(=O)([O-])OCC[N+](C)(C)C [LPC 11:0],65.7,104.6,149.9,,,,,
"CCCCCCC(=O)OC[C@H](COP(=O)([O-])OCC[N+](C)(C)C)OC(=O)CCCCCC [PC 7:0, 7:0]",,,,50.7,137.7,150.2,,
"CCCCCCCCCCCCCCCCCCCCCC(=O)OC[C@H](COP(=O)([O-])OCC[N+](C)(C)C)OC(=O)CCCCCCCCCCCCCCCCCCCCC [PC 22:0, 22:0]",,,,60.2,43.9,86.2,,
"CC/C=C\C/C=C\C/C=C\C/C=C\C/C=C\C/C=C\CCC(=O)O[C@H](COC(=O)CCCCCCCCCCCCCCCCC)COP(=O)([O-])OCC[N+](C)(C)C [PC 18:0, 22:6, 1-stearoyl-2-docosahexaenoyl-sn-glycero-3-phosphocholine]",,,,88.8,94.4,167.9,,
"CCCCCCCCCCCC(=O)OC[C@H](COP(=O)([O-])OCC[N+](C)(C)C)OC(=O)CCCCCCCCCCC [PC 12:0, 12:0]",,,,40.8,84.1,171.4,,
"CCCCCC(=O)OC[C@H](COP(=O)([O-])OCC[N+](C)(C)C)OC(=O)CCCCC [PC 6:0, 6:0]",,,,67.3,96.1,166.0,,
"CCCCCCCCCCCCCCCCCC(=O)OC[C@H](COP(=O)([O-])OCC[N+](C)(C)C)OC(=O)CCCCCCCCCCCCCCCCC [PC 18:0, 18:0]",,,,50.7,67.7,139.9,,
CCCCCCCCCCCCC(=O)OC[C@@H](O)COP(=O)([O-])OCC[N+](C)(C)C [LPC 13:0],83.8,99.4,120.1,,,,,
CCCCCCCCC(=O)OC[C@@H](O)COP(=O)([O-])OCC[N+](C)(C)C [LPC 9:0],67.2,94.5,134.9,,,,,
"CCCCCCCCCCCCC(=O)OC[C@H](COP(=O)([O-])OCC[N+](C)(C)C)OC(=O)CCCCCCCCCCCC [PC 13:0, 13:0]",,,,56.5,99.2,160.6,,
"CCCCCCCCC(=O)OC[C@H](COP(=O)([O-])OCC[N+](C)(C)C)OC(=O)CCCCCCCC [PC 9:0, 9:0]",,,,21.4,10.7,137,78.6,89.3
CCCCCCCC(=O)OCC(O)COP(=O)([O-])OCC[N+](C)(C)C (stereo not shown) [LPC 8:0],74.2,99.6,133.3,,,,,
"CCCCCCCC(=O)OC[C@H](COP(=O)([O-])OCC[N+](C)(C)C)OC(=O)CCCCCCC [PC 8:0, 8:0]",,,,25.6,180.5,114.8,74.4,
"CCCCCCCCCCC(=O)OC[C@H](COP(=O)([O-])OCC[N+](C)(C)C)OC(=O)CCCCCCCCCC [PC 11:0, 11:0]",,,,35.0,97.8,175.5,,
